Literature values in patent US8173361B2, “Method of determining metabolism of a test agent” (The General Hospital Corporation, priority 2003, dated 2012).

Details: treatment of chronic hepatitis B; clinical tests suspended

O=c1[nH]c(=O)n([C@@H]2O[C@H](CO)[C@@H](O)[C@@H]2F)cc1I [fialuridine]
drug-related toxicity in clinical tests: drug-related liver failure leading to death in some patients
